PMC3509132, “Global Epigenetic Changes Induced by SWI2/SNF2 Inhibitors Characterize Neomycin-Resistant Mammalian Cells” (PLoS ONE, 2012)
Where two headings read alike, the source gives them in different places.

Legend:
ADAAD [1] = target: T1, ADAAD (Bos taurus, UniProt Q9TTA5); conditions: ADAAD alone; His-ADAAD; ref Nongkhlaw et al. (Nongkhlaw, 2009); cited from earlier work
T1 sequence (Q9TTA5 229-940 limits assumed): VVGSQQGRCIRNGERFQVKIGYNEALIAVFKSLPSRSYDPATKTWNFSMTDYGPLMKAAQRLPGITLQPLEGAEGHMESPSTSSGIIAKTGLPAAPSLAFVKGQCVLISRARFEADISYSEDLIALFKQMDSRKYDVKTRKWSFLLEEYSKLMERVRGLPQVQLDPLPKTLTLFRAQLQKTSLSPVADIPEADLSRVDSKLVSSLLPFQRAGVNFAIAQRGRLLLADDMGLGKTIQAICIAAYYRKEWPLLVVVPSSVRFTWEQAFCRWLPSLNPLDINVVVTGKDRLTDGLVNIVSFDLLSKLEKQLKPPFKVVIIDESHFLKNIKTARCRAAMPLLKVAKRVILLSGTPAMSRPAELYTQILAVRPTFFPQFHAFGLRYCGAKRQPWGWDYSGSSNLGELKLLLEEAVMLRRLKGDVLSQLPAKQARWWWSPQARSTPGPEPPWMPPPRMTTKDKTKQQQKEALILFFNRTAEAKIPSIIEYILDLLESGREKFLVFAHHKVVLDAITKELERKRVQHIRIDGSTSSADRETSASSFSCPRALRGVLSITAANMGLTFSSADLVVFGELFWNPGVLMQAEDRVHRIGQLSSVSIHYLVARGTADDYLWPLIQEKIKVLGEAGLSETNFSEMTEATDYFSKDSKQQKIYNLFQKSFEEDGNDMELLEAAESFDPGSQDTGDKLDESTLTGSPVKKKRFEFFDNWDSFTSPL

ADAAD [2] = target: T1, ADAAD; assay: Intrinsic tryptophan fluorescence quenching binding titration with His-ADAAD
Protocol: (§1) His-ADAAD, used for binding studies, was purified as described previously. For mapping and CD studies, ADAAD as well as deletion constructs were expressed as GST-fusion protein in BL21 (DE3) cells and purified as described previously. In case of deletion constructs the GST-tag was not cleaved as the resultant proteins were not stable.
(§2) Fluorescence was measured at 25°C using Cary-Varian spectrofluorimeter as described previously. Stem-loop DNA (5′- […]-3′), synthesized by Sigma-Aldrich, was used in these studies. The intrinsic fluorescence quenching data obtained with acrylamide was analyzed using Stern-Volmer plots as described previously, [14].
To understand the interaction of ADAADi with ADAAD, a member of the SWI2/SNF2 family, we synthesized ADAADi using kanamycin and neomycin. These derivatives, ADAADiK and ADAADiN respectively, were purified and titrated with protein while monitoring the quenching of the intrinsic tryptophan fluorescence. […] This binding constant was same as that in the absence of ATP and slDNA. A similar result was obtained with ADAADiK (Figure S3A and S3B; Table 1). We thus conclude that the interaction of the inhibitor with ADAAD is independent of these two ligands.

[3] = target: T2, MAD 33 (ADAAD deletion construct; motifs Q, I, Ia) (Bos taurus, UniProt Q9TTA5); assay: Fluorescence binding titration, deletion construct MAD33; conditions: GST fusion
T2 sequence (Q9TTA5 211-507): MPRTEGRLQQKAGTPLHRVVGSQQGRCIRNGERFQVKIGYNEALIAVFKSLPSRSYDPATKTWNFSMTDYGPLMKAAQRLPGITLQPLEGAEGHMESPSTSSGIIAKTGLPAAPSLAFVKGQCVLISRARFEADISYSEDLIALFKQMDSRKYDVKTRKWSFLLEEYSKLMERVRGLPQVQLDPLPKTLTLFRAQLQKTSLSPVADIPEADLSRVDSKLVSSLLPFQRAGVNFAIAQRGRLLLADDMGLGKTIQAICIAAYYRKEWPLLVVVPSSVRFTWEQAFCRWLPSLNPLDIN
Protocol: as §1, §2
(§3) ADAAD contains the conserved helicase motifs (Table 2). Three deletion constructs of ADAAD-MAD47, MAD33, and MAD53-lacking DNA-dependent ATPase activity were used to delineate the interaction region (Table 2). The Kd values for the interaction of ADAADiN with MAD47 and MAD 33 were similar to that of wild type leading to the conclusion that motifs Q, I, and Ia are sufficient for the ADAADi-ADAAD interaction. In contrast, these three motifs are not sufficient for the slDNA-ADAAD interaction (Table 2). […]

[4] = target: T3, MAD 53 (ADAAD deletion construct; motifs Ia, II, III, IV, V, VI) (Bos taurus, UniProt Q9TTA5); assay: Fluorescence binding titration, deletion construct MAD53; conditions: GST fusion
T3 sequence (Q9TTA5 465-940): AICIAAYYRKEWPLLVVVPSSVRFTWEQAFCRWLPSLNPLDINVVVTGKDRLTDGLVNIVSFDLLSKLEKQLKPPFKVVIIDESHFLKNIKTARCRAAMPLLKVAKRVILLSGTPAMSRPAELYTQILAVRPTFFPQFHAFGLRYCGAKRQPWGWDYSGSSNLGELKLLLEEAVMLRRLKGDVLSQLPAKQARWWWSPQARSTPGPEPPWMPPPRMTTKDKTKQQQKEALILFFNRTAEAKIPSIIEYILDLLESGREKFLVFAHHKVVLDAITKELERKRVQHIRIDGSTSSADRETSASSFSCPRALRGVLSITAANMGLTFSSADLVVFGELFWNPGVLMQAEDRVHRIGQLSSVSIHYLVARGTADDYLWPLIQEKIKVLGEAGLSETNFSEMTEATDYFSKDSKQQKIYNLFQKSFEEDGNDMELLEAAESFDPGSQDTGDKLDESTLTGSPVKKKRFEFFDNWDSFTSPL
Protocol: as §1, §2, §3

[5] = target: T4, MAD 47 (ADAAD deletion construct; motifs Q, I, Ia, II, III) (Bos taurus, UniProt Q9TTA5); assay: Fluorescence binding titration, deletion construct MAD47
T4 sequence (Q9TTA5 211-635): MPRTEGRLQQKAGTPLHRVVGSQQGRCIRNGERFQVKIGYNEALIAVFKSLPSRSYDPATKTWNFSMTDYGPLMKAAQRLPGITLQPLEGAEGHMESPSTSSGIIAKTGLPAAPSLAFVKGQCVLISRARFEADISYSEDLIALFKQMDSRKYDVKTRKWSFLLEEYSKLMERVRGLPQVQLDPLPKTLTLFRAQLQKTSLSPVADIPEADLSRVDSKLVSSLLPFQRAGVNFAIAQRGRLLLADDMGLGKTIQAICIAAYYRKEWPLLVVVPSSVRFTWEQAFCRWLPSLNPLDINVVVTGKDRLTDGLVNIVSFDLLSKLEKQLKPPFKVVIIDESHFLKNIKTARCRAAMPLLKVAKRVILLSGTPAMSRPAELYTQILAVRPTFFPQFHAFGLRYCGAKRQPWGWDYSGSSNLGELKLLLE
Protocol: as §1, §2, §3

[6] = system: MAD28 (ADAAD deletion construct; motifs Q, I); assay: Fluorescence binding titration, deletion construct MAD28; conditions: GST fusion
Protocol: as §1, §2

[7] = target: T5, MAD8 (ADAAD deletion construct; motif Ia) (Bos taurus, UniProt Q9TTA5); assay: Fluorescence binding titration, deletion construct MAD8; conditions: GST fusion
T5 sequence (Q9TTA5 465-535): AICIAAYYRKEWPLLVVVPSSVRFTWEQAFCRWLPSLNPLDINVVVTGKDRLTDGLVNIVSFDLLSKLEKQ
Protocol: as §1, §2

MAD28 = target: T6, MAD28 (UniProt Q9TTA5); assay: intrinsic tryptophan fluorescence quenching; conditions: Fluorescence at 25 C (Cary-Varian spectrofluorimeter); buffer, salt and pH not given (as in ref 13)
T6 sequence (Q9TTA5 whole entry, looked up): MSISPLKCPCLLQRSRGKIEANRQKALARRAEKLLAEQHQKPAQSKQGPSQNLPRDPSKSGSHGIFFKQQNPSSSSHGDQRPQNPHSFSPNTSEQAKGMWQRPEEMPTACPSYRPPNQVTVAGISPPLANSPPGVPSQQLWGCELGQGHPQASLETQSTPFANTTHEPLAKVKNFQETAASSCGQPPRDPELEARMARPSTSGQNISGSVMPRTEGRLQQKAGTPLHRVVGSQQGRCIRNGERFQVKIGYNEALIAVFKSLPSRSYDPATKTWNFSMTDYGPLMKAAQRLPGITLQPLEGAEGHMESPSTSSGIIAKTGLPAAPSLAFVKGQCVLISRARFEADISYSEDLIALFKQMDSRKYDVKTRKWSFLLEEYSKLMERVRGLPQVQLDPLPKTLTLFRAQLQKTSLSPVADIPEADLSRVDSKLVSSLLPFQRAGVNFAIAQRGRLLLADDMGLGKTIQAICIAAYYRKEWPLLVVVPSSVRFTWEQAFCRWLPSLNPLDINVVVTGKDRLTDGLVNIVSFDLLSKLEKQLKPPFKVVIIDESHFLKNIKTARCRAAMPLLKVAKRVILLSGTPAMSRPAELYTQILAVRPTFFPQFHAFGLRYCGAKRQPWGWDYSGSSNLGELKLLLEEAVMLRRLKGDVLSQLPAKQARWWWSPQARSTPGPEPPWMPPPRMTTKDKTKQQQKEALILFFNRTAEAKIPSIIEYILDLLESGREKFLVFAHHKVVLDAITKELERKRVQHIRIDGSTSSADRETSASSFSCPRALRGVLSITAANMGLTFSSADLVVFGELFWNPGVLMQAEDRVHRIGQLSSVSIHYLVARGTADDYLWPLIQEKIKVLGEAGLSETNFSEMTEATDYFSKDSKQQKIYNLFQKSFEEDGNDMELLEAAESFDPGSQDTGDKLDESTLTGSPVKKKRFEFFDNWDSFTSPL

MAD33 = target: T7, MAD33 (UniProt Q9TTA5); assay: intrinsic tryptophan fluorescence quenching; conditions: Fluorescence at 25 C (Cary-Varian spectrofluorimeter); buffer, salt and pH not given (as in ref 13)
T7 sequence (Q9TTA5 whole entry, looked up): T6 sequence (Q9TTA5 whole entry, looked up)

MAD8 = target: T8, MAD8 (UniProt Q9TTA5); assay: intrinsic tryptophan fluorescence quenching; conditions: Fluorescence at 25 C (Cary-Varian spectrofluorimeter); buffer, salt and pH not given (as in ref 13)
T8 sequence (Q9TTA5 whole entry, looked up): T6 sequence (Q9TTA5 whole entry, looked up)

MAD53 = target: T9, MAD53 (UniProt Q9TTA5); assay: intrinsic tryptophan fluorescence quenching; conditions: Fluorescence at 25 C (Cary-Varian spectrofluorimeter); buffer, salt and pH not given (as in ref 13)
T9 sequence (Q9TTA5 whole entry, looked up): T6 sequence (Q9TTA5 whole entry, looked up)

MAD47 = target: T10, MAD47 (UniProt Q9TTA5); assay: intrinsic tryptophan fluorescence quenching; conditions: Fluorescence at 25 C (Cary-Varian spectrofluorimeter); buffer, salt and pH not given (as in ref 13)
T10 sequence (Q9TTA5 whole entry, looked up): T6 sequence (Q9TTA5 whole entry, looked up)

[8] = target: T11, His-ADAAD (Active DNA-dependent ATPase A Domain) (UniProt Q9TTA5); assay: intrinsic tryptophan fluorescence quenching; conditions: Fluorescence at 25 C (Cary-Varian spectrofluorimeter), buffer, salt and pH not given (as in ref 13)
T11 sequence (Q9TTA5 whole entry, looked up): T6 sequence (Q9TTA5 whole entry, looked up)

[9] = target: T12, ADAAD wild type (GST cleaved) (UniProt Q9TTA5 229-940); assay: intrinsic tryptophan fluorescence quenching; Fluorescence at 25 C (Cary-Varian spectrofluorimeter); buffer, salt and pH not given (as in ref 13); conditions: protein: recombinant; tags: none (GST removed with PreScission); hairpin
T12 sequence: T1 sequence (Q9TTA5 229-940 limits assumed)

For `Nc1ncnc2c1ncn2[C@@H]1O[C@H](COP(=O)(O)OP(=O)(O)OP(=O)(O)O)[C@@H](O)[C@H]1O` [ATP], the Kd (ADAAD [1]) is given as 1600 nM, the Kd (ADAAD [2]) is given as 100 ± 3 nM and the “fold higher affinity than in the absence of the inhibitor” value (ADAAD [2]; in the presence of ADAADiK) is given as 10 fold. The “fold higher affinity than in the absence of the inhibitor” value (ADAAD [2]; in the presence of ADAADiN) was 10 fold.

For “slDNA: Stem-loop DNA (5′- GCGCAATTGCGCTCGACGATTTTTTAGCGCAATTGCGC-3′), a well-characterized DNA effector of ADAAD (DNA, backbone and methylation of C not given here; stem-loop DNA)”, the Kd (ADAAD [1]) is given as 19.9 nM, the Kd [3] is given as 41.5 nM and the Kd [4] is given as 8.2 nM. For the same molecule, the Kd (ADAAD [2]; ADAAD + ADAADiK (2 μM ADAADiK), His-ADAAD, read-out: Kd) was 0.46 nM, the Kd (ADAAD [2]; ADAAD + ADAADiN (saturated with 2 μM ADAADiN), His-ADAAD, read-out: Kd) was 0.63 nM and the Kd [5] was 6.5 nM. The Kd [6] was 22.1 nM and the Kd [7] was 8.7 nM.

Molecule “GCGCAATTGCGCTCGACGATTTTTTAGCGCAATTGCGC [slDNA (stem-loop DNA)]” has a Kd (MAD28) of 22.1 nM, a Kd (MAD33) of 41.5 nM and a Kd (MAD8) of 8.7 nM. The Kd (MAD53) was 8.2 nM, the Kd (MAD47) was 6.5 nM and the Kd ([8]; 2 uM ADAADiK) was 0.46 nM. It also gave a Kd ([8]; 2 uM ADAADiN (saturating inhibitor)) of 0.63 nM.

GCGCAATTGCGCTCGACGATTTTTTAGCGCAATTGCGC (structured_DNA) [slDNA (stem-loop DNA)] showed a Kd [9] of 3.8 ± 1.1 nM.
